Data published in patent US20250145589A1, “PYRIDINE DERIVATIVE AND USE THEREOF” (SICHUAN HUIYU PHARMACEUTICAL CO., LTD., priority 2021, published 2025).
Read-outs that look alike come from different tables or passages of the source.

Tests used:
[1] = target: PI3Kα (Homo sapiens (Human), UniProt P42336); test: Inhibition of PI3Kα efficacy assay (ADP-Glo kinase assay); type: biochemical; settings: read-out: PI3Kα inhibitory activity (IC50)
Outline: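 Eight five-fold dilutions of compound (2 mM DMSO stock) tested; kinase reaction with PI and ATP ran 60 min at RT, followed by ADP-Glo and detection reagent steps of 40 min each. Four-parameter logistic fitting gave IC50 values.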

[2] = test system: MIA PaCa-2-AMGR drug-resistant cell line; test: MIA PaCa-2-AMGR drug-resistant cell proliferation inhibitory activity test; type: cell-based; settings: MIA PaCa-2-AMGR drug-resistant cells, 3 days incubation, CellTiter-Glo
Outline: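 Viability was read by CellTiter-Glo luminescence after 3 days of compound exposure (8 points, 5-fold serial dilution), with IC50 derived relative to untreated control. Cells: AMG510-resistant MIA PaCa-2 (selected stepwise to 1 μM AMG510), 4×10^3/well, DMEM + 10% FBS + 2.5% horse serum, 37° C.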

Sequence of PI3Kα (P42336 whole entry): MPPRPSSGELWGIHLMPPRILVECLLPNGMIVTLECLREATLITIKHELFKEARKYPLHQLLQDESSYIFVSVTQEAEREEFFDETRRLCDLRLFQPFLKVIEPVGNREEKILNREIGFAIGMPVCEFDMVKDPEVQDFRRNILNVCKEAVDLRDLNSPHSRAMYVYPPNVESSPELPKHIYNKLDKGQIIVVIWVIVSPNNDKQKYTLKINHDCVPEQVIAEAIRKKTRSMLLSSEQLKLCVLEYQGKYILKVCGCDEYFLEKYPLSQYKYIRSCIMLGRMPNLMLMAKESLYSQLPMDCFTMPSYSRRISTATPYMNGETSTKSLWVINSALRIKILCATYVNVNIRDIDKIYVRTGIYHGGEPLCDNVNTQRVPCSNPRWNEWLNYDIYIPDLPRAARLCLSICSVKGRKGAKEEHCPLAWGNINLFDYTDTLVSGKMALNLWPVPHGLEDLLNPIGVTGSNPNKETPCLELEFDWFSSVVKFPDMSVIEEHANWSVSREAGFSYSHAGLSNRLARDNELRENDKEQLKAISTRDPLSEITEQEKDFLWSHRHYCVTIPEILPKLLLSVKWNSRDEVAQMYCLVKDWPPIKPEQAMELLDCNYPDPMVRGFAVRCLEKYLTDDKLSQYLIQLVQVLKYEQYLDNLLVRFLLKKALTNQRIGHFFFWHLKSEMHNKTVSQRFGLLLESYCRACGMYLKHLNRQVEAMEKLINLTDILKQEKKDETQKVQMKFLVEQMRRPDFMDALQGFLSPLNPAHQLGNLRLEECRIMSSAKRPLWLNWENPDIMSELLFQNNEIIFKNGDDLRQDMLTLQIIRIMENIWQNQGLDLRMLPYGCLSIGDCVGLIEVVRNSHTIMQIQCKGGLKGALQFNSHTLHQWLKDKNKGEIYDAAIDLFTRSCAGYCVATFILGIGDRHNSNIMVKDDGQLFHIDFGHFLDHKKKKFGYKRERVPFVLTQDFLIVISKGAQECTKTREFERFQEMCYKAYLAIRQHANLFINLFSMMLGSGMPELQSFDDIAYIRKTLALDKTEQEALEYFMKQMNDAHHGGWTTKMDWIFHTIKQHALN
Sequence of PI3Kα (P27986 whole entry partner): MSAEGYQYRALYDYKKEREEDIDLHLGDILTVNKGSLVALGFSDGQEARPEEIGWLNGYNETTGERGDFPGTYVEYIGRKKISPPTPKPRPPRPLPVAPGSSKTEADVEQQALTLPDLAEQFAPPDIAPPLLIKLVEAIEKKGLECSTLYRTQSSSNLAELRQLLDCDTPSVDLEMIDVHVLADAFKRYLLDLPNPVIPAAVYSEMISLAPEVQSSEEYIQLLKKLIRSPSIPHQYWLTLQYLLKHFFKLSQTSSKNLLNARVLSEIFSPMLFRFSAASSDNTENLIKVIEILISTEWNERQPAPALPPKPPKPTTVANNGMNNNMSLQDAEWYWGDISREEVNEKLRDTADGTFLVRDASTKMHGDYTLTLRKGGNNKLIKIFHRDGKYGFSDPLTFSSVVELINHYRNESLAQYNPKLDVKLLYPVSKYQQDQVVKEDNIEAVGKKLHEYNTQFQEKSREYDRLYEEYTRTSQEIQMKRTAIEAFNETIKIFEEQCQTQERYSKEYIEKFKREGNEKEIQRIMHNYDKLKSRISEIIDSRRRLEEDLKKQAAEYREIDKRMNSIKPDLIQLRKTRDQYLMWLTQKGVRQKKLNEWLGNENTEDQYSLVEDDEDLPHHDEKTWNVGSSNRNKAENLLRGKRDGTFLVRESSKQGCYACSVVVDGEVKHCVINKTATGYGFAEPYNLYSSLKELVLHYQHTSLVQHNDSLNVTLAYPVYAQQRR

Compound | IC50 ([1]; Table 2) [nM] | IC50 [2] [nM] | IC50 ([1]; Table 4) [nM] | IC50 ([2]; 72 h) [nM]
COc1ncc(-c2ccc3ncnc(N4CCN(C(=O)/C=C/C(C)=O)CC4)c3c2)cc1NS(=O)(=O)c1ccc(C)cc1F [Example 111] | 8.8 | 90.1 | – | –
COc1ncc(-c2ccc3ncnc(N4CCC5(CC4)CN(C(=O)/C=C/C(C)=O)C5)c3c2)cc1NS(=O)(=O)c1ccccc1F [Example 150, (E)-2-fluoro-N-(2-methoxy-5-(4-(2-(4-oxopent-2-enoyl)-2,7-diazaspiro[3.5]nonan-7-yl)quinazolin-6-yl)pyridin-3-yl)benzenesulfonamide] | – | – | 0.11 | 55.1
COc1ncc(-c2ccc3ncnc(N4CC5CCC(C4)N5C(=O)/C=C/C(C)=O)c3c2)cc1NS(=O)(=O)c1sc(C)nc1C [Example 176, N-(2-methoxy-5-(4-(8-((E)-4-oxopent-2-enoyl)-3,8-diazabicyclo [3.2.1]octan-3-yl)quinazolin-6-yl)pyridin-3-yl)-2,4-dimethyl-thiazole-5-sulfonamide] | – | – | 2.6 | 48.6
COc1ncc(-c2ccc3ncnc(C4=CCN(C(=O)/C=C/C(C)=O)CC4)c3c2)cc1NS(=O)(=O)c1c(F)cccc1F [Example 201, (E)-2,6-difluoro-N-(2-methoxy-5-(4-(1-(4-oxopent-2-enoyl)-1,2,3,6-tetrahydropyridin-4-yl)quinazolin-6-yl)pyridin-3-yl)benzenesulfonamide] | – | – | 3.8 | 11.1
COc1ncc(-c2ccc3ncnc(N4CCN(C(=O)/C=C/C(C)=O)[C@H](C)C4)c3n2)cc1NS(=O)(=O)c1ccccc1F [Example 228, (R,E)-2-fluoro-N-(2-methoxy-5-(4-(3-methyl-4-(4-oxopent-2-enoyl)piperazin-1-yl)pyrido[3,2-d]pyrimidin-6-yl)pyridin-3-yl)benzene-sulfonamide] | – | – | 2.8 | 13.5
COc1ncc(-c2ccc3ncnc(C4CCN(C(=O)/C=C/C(C)=O)CC4)c3n2)cc1NS(=O)(=O)c1c(F)cccc1F [Example 233, (E)-2,6-difluoro-N-(2-methoxy-5-(4-(1-(4-oxopent-2-enoyl)piperidin-4-yl)pyrido[3,2-d]pyrimidin-6-yl)pyridin-3-yl)benzenesulfonamide] | – | – | 4 | 16.7
COc1ncc(-c2ccc3ncnc(N4CCN(C(=O)/C=C/C(C)=O)CC4)c3n2)cc1NS(=O)(=O)c1ccncc1F [Example 220, (E)-3-fluoro-N-(2-methoxy-5-(4-(4-(4-oxopent-2-enoyl)piperazin-1-yl)pyrido[3,2-d]pyrimidin-6-yl)pyridin-3-yl) pyridine-4-sulfonamide] | – | – | 1.1 | 212
